# Laboratory results taken from patent US20190307729A1, “ANTIMICROBIAL COMPOUNDS AND METHODS FOR USE THEREOF” (VERSITECH LIMITED, priority 2016, published 2019).
# System: B. cepacia
# Test: Pigment formation (virulence suppression)
# Format: cell-based, Burkholderia cepacia
smiles,measurement,value
O=C(O)CN1C(=O)C(=Cc2ccc(OCc3ccc(Cl)cc3)cc2)SC1=S [Compound 82],pigment formation,repressing the pigment formation
